Several values for one entry are separate records, joined by “and”; a condition that tells them apart may be missing. Identical values can stand only once. Like-named read-outs stand apart in the source and are kept apart here.
What was measured:
[1] = target: T1, hLAT1/4F2hc (Homo sapiens, UniProt Q01650); experiment: cis-inhibition of [14C]-L-leucine uptake in HEK-hLAT1 cells; assay type: cell-based; details: for inhibition at 50 µM: read-out: [14C]-L-Leucine uptake inhibition % (50μM)
T1 construct: Invitrogen (host cells)
Description: (§1) In the following experiments, the MCF-7, HEK-hLAT1, and HEK-MOCK cells were cultured, seeded, and preincubated as described above. The HBSS was removed, and the ability of the compounds to inhibit the uptake of a known LAT1 substrate, [^14C]-L-leucine (PerkinElmer, Waltham, MA, USA), was studied by incubating the cells at RT for 10 min in uptake buffer pH 7.4 (250 μL) containing 0.76 μM (0.1 mCi/mL) of [^14C]-L-leucine and 0.025–1800 μM of the studied compound (or HBSS as blank). After incubation, the reaction was stopped with ice-cold HBSS, and the cells were washed two times with ice-cold HBSS. The cells were then lysed with 250 μL of 0.1 M sodium hydroxide, the lysate was mixed with 1.0 mL of Emulsifier safe cocktail (PerkinElmer, Waltham, MA, USA), and the radioactivity was measured with a liquid scintillation counter (MicroBeta^2 counter, PerkinElmer, Waltham, MA, USA). The inhibition of [^14C]-L-leucine in the presence of the studied compounds as compared to the control (HBSS) was calculated as percentages (%).
Using the stably hLAT1/4F2hc expressing cell line, the compounds’ inhibitory efficiencies and uptake kinetics were determined via the cis-inhibition assay and uptake studies, respectively. (Table 1) Cis-inhibition is based on the competition between the ligand and LAT1 substrate [^14C]-L-leucine that results in inhibition of substrate uptake. The competitive uptake with L-leucine is reported as the IC50 value of L-leucine uptake and extent as inhibition percentage (%) at a given concentration.

[2] = tested on: HEK-MOCK cells; experiment: Concentration-dependent cellular uptake into HEK-MOCK cells; assay type: cell-based, human; details: for Vmax: 10 min
Description: (§2) The concentrations for the compounds were in the range of 2–400 μM. Otherwise, the experiment was carried out as described above and analyzed by liquid chromatography coupled with an electrospray ionization (ESI) triple quadrupole mass spectrometer (LC–MS–MS). […]
(§3) The concentration-dependent uptake studies were performed by adding 2–400 μM of the tested compound in 250 μL of prewarmed HBSS buffer on the cell layer. […] After incubation, the cells were washed and lysed as described above. The lysate was collected from wells into an Eppendorf tube and centrifuged at 4 °C, the supernatant was collected, and the intracellular concentrations of studied compounds were analyzed by liquid chromatography coupled with an ESI triple quadrupole mass spectrometer (LC–MS–MS). The results were calculated from the standard curve that was prepared by spiking known amounts of each compound to the cell lysate and normalized to protein concentration. The protein concentrations on each plate were determined as a mean of three samples by Bio-Rad Protein Assay, based on the Bradford dye-binding method, using BSA as a standard protein and measuring the absorbance (595 nm) by a multiplate reader (EnVision, PerkinElmer, Inc., Waltham, MA, USA). All statistical analyses (Michaelis–Menten kinetic parameters) were performed using GraphPad Prism v. 5.03 software (GraphPad Software, San Diego, CA., USA). […]
(§4) After protein precipitation, the samples were centrifuged for 10 min with 10,000 g at 4 °C. The supernatant was then collected and transferred to vials for LC–MS/MS analysis. For BCH and gabapentin, cells were also lysed with 0.1 M NaOH, an aliquot was taken from the lysates, and perchloric acid (PCA) was added to precipitate the proteins. The samples were then centrifuged, and the supernatant was diluted 1:10 with H20 with 0.1% formic acid including the IS and transferred to vials for analysis.
(§5) The samples were analyzed with LC–MS/MS coupled with an Agilent 1200 series Rapid Resolution LC System (Agilent Technologies, Waldbronn, Germany) and an Agilent 6410 Triple Quadrupole with electrospray ionization (ESI) (Agilent Technologies, Palo Alto, CA, USA). […] The aqueous mobile phase was 0.1% formic acid in water (A), while the organic mobile phase was 0.1% formic acid in acetonitrile (B). […] For compound 4: 0–4 min 10% → 90% B, 4–6 min 90% B, 6–6.1 min 90% → 10%, 6.1–9 min 10%. For compound 5: 0–1 min 20% → 95% B, 1–4 min 95%, 4–4.1 min 95% → 20%, 4.1–7 min 20%. For compounds 6 and 9: 0–2 min 10% → 95%, 2–6 min 95%, 6–6.1 min 95% → 10%, 6.1–9 min 10%. For compound 8: 0–1 min 20% → 80%, 1–5.2 min 80%, 5.2–5.3 min 80% → 20%, 5.3–9 min 20%.

[3] = tested on: HEK-MOCK cells; experiment: cis-inhibition of [14C]-L-leucine uptake in HEK-MOCK cells; assay type: cell-based, human; details: for inhibition at 50 µM / IC50: Homo sapiens; for inhibition at 50 µM / [14C]-L-Leucine uptake inhibition % (50μM): 10 min; for inhibition at 50 µM: read-out: [14C]-L-Leucine uptake inhibition % (50μM); for IC50: read-out: IC50 of [14C]-L-leucine uptake
Description: as §1
Using the stably hLAT1/4F2hc expressing cell line, the compounds’ inhibitory efficiencies and uptake kinetics were determined via the cis-inhibition assay and uptake studies, respectively. (Table 1) Cis-inhibition is based on the competition between the ligand and LAT1 substrate [^14C]-L-leucine that results in inhibition of substrate uptake. The competitive uptake with L-leucine is reported as the IC50 value of L-leucine uptake and extent as inhibition percentage (%) at a given concentration. Overall, the inhibition trends of the tested compounds were similar between HEK-hLAT1 and MCF-7 cells. In the next step, more straightforward results were obtained by undertaking direct cellular uptake studies with both HEK-hLAT1 and HEK-MOCK cells. This experiment enabled us to determine not only the uptake kinetics (Vmax and Km) of the ligands but also their preference for LAT1-expressing cells over the comparator HEK-MOCK cells.

[4] = target: T1, hLAT1/4F2hc; experiment: Concentration-dependent cellular uptake into HEK-hLAT1 cells (LC-MS/MS, Michaelis-Menten); assay type: cell-based; details: difference in uptake HEK-hLAT1 vs HEK-MOCK, with docking poses; 2-100 μM curves
[5] = target: T2, LAT1 in MCF-7 human breast cancer cells (Homo sapiens, UniProt Q01650); experiment: cis-inhibition of [14C]-L-leucine uptake in MCF-7 cells; assay type: cell-based; details: for inhibition at 50 µM: MCF7, MCF-7 cells, 50 μM compound; for IC50: MCF-7 cells
T2 construct: wild-type MCF-7 human breast cancer cell line; endogenous in cells; host or cells: MCF-7 human breast cancer cells (wild type)
Description: Cells were cultured in DMEM (Gibco, ThermoFisher Scientific, Waltham, MA, USA) supplemented with L-glutamine (2 mM; ThermoFisher Scientific, Waltham, MA, USA), heat-inactivated fetal bovine serum (10%; Gibco, ThermoFisher Scientific, Waltham, MA, USA), penicillin (50 U/mL)-streptomycin (50 μg/mL) solution (ThermoFisher Scientific, Waltham, MA, USA), and hygromycin B solution (100 μg/mL) for transfected cells. HEK-hLAT1 and HEK-MOCK cells (passages 7–20) were seeded at a density of 5 × 10^5 cells/wells onto 24-well plates. The cells were used in the characterization, competition, and uptake studies 2 days after seeding. MCF-7 cells were seeded at a density of 1 × 10^5 and were used in the competition studies 1 day after seeding. The culture medium was removed, and the cells were washed with prewarmed Hanks’ balanced salt solution (HBSS; 125 mM NaCl, 4.8 mM KCl, 1.2 mM MgSO4, 1.2 mM KH2PO4, 1.3 mM CaCl2, 5.6 mM D-glucose, and 25 mM HEPES, pH 7.4). The cells were then incubated with HBSS at 37 °C for 10 min before the experiments.
as §1

[6] = target: T1, hLAT1/4F2hc; experiment: Concentration-dependent cellular uptake into HEK-hLAT1 cells (LC-MS/MS, Michaelis-Menten); assay type: cell-based; details: for Vmax / Km: HEK-hLAT1 cells; for Vmax: 2-400 μM, 10 min
Description: as §2, §3, §4, §5

[7] = tested on: MCF-7 cells; details: MCF-7 cells, previous studies; cited from earlier work
[8] = HEK-hLAT1 cells, 50 μM compound, 0.76 μM [14C]-L-leucine, 10 min, known substrates
[9] = HEK-hLAT1 cells, known substrates, read-out: IC50 of [14C]-L-leucine uptake
[10] = known LAT1 substrates, 2-400 μM, n = 3
[11] = HEK-MOCK cells, 50 μM compound, 0.76 μM [14C]-L-leucine, known substrates
[12] = HEK-MOCK cells, known substrates
[13] = HEK-hLAT1 cells, 50 μM compound, compounds 1-12
[14] = HEK-hLAT1 cells, compounds 1-12, read-out: IC50 of [14C]-L-leucine uptake
[15] = known LAT1 substrates, n = 3, read-out: Km

T2 sequence (Q01650 whole entry): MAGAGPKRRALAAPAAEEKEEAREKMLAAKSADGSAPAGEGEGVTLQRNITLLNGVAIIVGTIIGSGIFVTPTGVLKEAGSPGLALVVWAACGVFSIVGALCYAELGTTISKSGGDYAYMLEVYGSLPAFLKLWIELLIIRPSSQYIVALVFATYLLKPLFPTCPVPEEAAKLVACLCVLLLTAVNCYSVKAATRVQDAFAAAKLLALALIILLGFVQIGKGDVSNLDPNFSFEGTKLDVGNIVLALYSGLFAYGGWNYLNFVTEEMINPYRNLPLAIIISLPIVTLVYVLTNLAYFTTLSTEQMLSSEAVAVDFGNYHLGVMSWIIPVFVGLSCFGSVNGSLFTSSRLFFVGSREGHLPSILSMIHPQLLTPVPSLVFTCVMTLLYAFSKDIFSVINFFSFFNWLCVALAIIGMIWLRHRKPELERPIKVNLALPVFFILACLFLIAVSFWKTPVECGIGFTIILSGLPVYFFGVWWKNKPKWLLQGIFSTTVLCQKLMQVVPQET
T2 sequence (P08195 102-630 partner): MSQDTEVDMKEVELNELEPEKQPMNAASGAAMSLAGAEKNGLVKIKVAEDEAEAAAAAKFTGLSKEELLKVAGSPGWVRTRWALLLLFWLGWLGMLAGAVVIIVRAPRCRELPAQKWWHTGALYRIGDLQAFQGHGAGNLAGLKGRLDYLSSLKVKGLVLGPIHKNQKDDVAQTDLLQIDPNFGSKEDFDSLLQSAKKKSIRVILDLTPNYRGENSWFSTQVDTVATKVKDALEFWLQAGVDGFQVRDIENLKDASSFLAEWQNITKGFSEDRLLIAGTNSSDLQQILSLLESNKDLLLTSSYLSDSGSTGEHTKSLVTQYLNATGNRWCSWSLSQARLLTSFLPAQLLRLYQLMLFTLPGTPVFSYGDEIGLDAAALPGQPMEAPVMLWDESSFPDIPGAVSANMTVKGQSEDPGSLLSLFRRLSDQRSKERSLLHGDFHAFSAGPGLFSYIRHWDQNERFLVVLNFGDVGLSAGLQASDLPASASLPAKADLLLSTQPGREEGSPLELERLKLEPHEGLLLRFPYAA
T1 sequence (Q01650 whole entry): as the sequence (Q01650 whole entry) above
T1 sequence (P08195 102-630 partner): as the sequence (P08195 102-630 partner) above

SMILES	IC50 [1, 9] [µM]	Vmax [2, 10]	Km ([2]; known LAT1 substrates, n = 3) [µM]	inhibition at 50 µM [1, 13] [%]	IC50 [1, 14] [µM]	interaction class with LAT1 (interaction and transportability) [4]	inhibition at 50 µM [5] [%]	IC50 [5] [µM]	Vmax ([6]; known LAT1 substrates, n = 3)	further results
NC1(C(=O)O)CC2CCC1C2 (stereo not shown) [BCH, reference compound]	28	2.6±0.6 nmol/min/mg of protein	155 ± 50	–	–	–	–	–	–	inhibition at 50 µM [1, 8]: 51.8 ± 2.1%; inhibition at 50 µM [3, 11]: 5.8 ± 1%; IC50 [3, 12]: 203 µM
N[C@@H](Cc1cccc(NC(=O)c2ccccc2O)c1)C(=O)O [Compound 1]	–	–	–	8.1 ± 6.9	> 100	highest interactions	66 ± 3.9	3.3 ± 1.3	–	Km ([2]; compounds 1-12): 10 ± 2.7 µM; Vmax ([2]; compounds 1-12, 2-400 μM): 94±5.4 pmol/min/mg of protein; Vmax ([6]; compounds 1-12): 3714±371 pmol/min/mg of protein; Km ([6]; compounds 1-12, read-out: Km): 105 ± 17 µM
N[C@@H](Cc1cccc(C(=O)NCCc2ccc(O)c(O)c2)c1)C(=O)O [Compound 3]	–	–	–	4.27 ± 3.94	> 100	highest interactions	–	3.3 ± 1.3	–	Vmax [7]: < 3 pmol/min/mg
CCCC(CCC)C(=O)Nc1cccc(C[C@H](N)C(=O)O)c1 [Compound 4]	–	–	–	–	> 100	highest interactions	–	81 ± 1.4	–	[14C]-L-Leucine uptake inhibition % (50μM) [1, 13]: no inhibition; Km ([2]; compounds 1-12): 277 µM; Vmax ([2]; compounds 1-12, 2-400 μM): 292 pmol/min/mg of protein and 292±710 pmol/min/mg of protein; Vmax ([6]; compounds 1-12): 1027 pmol/min/mg of protein and 1027±170 pmol/min/mg of protein; Km ([6]; compounds 1-12, read-out: Km): 111 ± 30 µM; potency for hLAT1 relative to HEK-MOCK (Km ratio) ([6]; Km 111 μM HEK-hLAT1 vs 277 μM HEK-MOCK): more than two-fold; Vmax (uptake rate) in HEK-hLAT1 cells relative to HEK-MOCK cells ([6]; ratio of Vmax values): around three
CNC(=O)COc1ccc(-c2c(C#N)c(NC(=O)c3cccc(C[C@H](N)C(=O)O)c3)n3c(nc4ccccc43)c2C#N)cc1 [Compound 6]	–	–	–	29 ± 2.8	> 100	medium interactions	48 ± 12	–	–	Km ([2]; compounds 1-12): 201 ± 344 µM; Vmax ([2]; compounds 1-12, 2-400 μM): 74±92 pmol/min/mg of protein
CC(C)Cc1ccc(C(C)C(=O)Nc2cccc(C[C@H](N)C(=O)O)c2)cc1 (stereo partly shown) [Compound 7]	–	–	–	20 ± 2.5	57	medium interactions	69 ± 4.3	20 ± 1.3	–	–
CC(C(=O)Nc1cccc(C[C@H](N)C(=O)O)c1)c1ccc(-c2ccccc2)c(F)c1 (stereo partly shown) [Compound 11]	–	–	–	26.4 ± 3.1	> 100	not interacting with LAT1	84 ± 3.1	2.2 ± 1.3	–	–
COc1ccc2cc(C(C)C(=O)Nc3cccc(C[C@H](N)C(=O)O)c3)ccc2c1 (stereo partly shown) [Compound 12]	–	–	–	28 ± 2.6	> 100	not interacting with LAT1	83 ± 1.7	5.6 ± 1.3	–	–
NCC1(CC(=O)O)CCCCC1 [Gabapentin, reference compound]	36	4.7±1.6 nmol/min/mg of protein	182 ± 86	–	–	–	–	–	18±9.9 nmol/min/mg of protein	inhibition at 50 µM [1, 8]: 46.7 ± 1.7%; Km [6, 15]: 552 ± 334 µM; [14C]-L-Leucine uptake inhibition % (50μM) [3, 11]: no inhibition; IC50 [3, 12]: > 1000 µM
N[C@@H](Cc1ccc(O)c(O)c1)C(=O)O [L-DOPA, reference compound]	4.1	2.8±0.9 nmol/min/mg of protein	225 ± 90	–	–	–	–	–	15±7.6 nmol/min/mg of protein	Km [6, 15]: 763 ± 413 µM; [14C]-L-Leucine uptake inhibition % (50μM) [3, 11]: no inhibition
N[C@@H](Cc1ccc(N(CCCl)CCCl)cc1)C(=O)O [Melphalan, reference compound]	–	0.07±0.09 nmol/min/mg of protein	91 ± 21	–	–	–	–	–	0.08±0.01 nmol/min/mg of protein	IC50 [1]: 6.6 µM; inhibition at 50 µM [1]: 38.2 ± 2.4%; Km ([6]; known LAT1 substrates, n = 3): 35 ± 7 µM; [14C]-L-Leucine uptake inhibition % (50μM) [3, 11]: no inhibition
N[C@@H](Cc1c[nH]c2ccccc12)C(=O)O [Tryptophan, L-tryptophan, reference compound]	24	0.3±0.2 nmol/min/mg of protein	482 ± 496	–	–	–	–	–	12±19 nmol/min/mg of protein	inhibition at 50 µM [1]: 50.2 ± 1.7%; inhibition at 50 µM [3]: 19.6 ± 6.2%; IC50 [3]: 163 µM

Reference: paper PMC9811466, “Structural Features Affecting the Interactions and Transportability of LAT1-Targeted Phenylalanine Drug Conjugates” (Molecular Pharmaceutics, 2022)
